This assay concerns the target T1, Axl (Homo sapiens, UniProt P30530).
T1 construct: endogenous in cells; host or cells: HeLa cells
T1 sequence (P30530 26-894): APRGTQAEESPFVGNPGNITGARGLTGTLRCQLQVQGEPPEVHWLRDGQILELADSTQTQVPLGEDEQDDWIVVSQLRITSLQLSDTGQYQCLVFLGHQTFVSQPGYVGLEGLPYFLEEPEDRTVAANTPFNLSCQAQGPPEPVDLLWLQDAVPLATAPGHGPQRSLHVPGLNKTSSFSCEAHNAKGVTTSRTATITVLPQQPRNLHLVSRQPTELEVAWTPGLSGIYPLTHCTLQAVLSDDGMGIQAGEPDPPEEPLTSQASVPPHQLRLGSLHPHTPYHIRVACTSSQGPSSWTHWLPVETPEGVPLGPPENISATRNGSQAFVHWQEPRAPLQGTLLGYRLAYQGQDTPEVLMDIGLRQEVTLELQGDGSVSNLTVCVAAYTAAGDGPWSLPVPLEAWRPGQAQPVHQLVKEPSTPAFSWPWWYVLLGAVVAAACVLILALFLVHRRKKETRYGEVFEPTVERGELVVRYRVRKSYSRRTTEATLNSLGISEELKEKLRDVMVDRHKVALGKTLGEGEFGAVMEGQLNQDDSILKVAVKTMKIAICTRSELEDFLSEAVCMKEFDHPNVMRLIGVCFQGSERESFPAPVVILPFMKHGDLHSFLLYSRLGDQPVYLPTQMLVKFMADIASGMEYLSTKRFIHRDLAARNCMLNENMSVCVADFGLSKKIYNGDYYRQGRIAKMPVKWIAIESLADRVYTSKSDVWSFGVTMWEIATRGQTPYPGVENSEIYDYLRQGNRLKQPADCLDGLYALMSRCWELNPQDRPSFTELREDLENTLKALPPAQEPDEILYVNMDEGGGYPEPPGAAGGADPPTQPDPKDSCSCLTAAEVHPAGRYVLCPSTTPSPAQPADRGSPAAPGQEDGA
The experiment in a line: Phospho-Akt In-Cell Western Assay (inhibition of Axl activity after Axl-antibody cross-linking). Type of assay: cell-based. The protocol:
The compounds of the invention were tested in the following assay for their ability to inhibit Axl activity.
Phospho-Akt In-Cell Western Assay
• Cell culture plate: 96 well assay plate (Corning 3610), white, clear bottom, tissue-culture treated. • Cells: Hela cells. • Starvation medium: For Axl stimulation: 0.5% FCS (fetal calf serum) in DMEM, plus Axl/Fc (extracellular domain of AXL fused to immunoglobulin Fc region) (R&D, 154-AL) 500 ng/mL. • For EGF (epidermal growth factor) stimulation: 0.5% FCS in DMEM (Dulbecco's modified Eagles medium). • Poly-L-Lysine 0.01% solution (the working solution): […], dilute In PBS (phosphate buffered saline). • Axl antibody cross-linking: • 1st: Mouse anti-Axl (R&D, MAB154). • 2nd: Biotin-SP-conjugated AffiniPure goat anti-mouse IgG (H+ L) (Jackson ImmunoResearch #115-065-003). • Fixing buffer: 4% formaldehyde in PBS. • Wash buffer: 0.1% TritonX-100 in PBS. • Quenching buffer: 3% H2O2, 0.1% Azide in wash buffer, Azide and hydrogen peroxide (H2O2) are added fresh. • Blocking buffer: 5% BSA in TBST (tris buffered saline plus 0.1% Tween 20). • Primary antibody: Rabbit anti-human Phospho-Akt antibody (Cell Signaling 9271): 1×250 diluted in blocking buffer. • Secondary antibody: HRP (horse radish peroxidase)-conjugated Goat anti-Rabbit secondary, stock solution: Jackson ImmunoResearch (Goat anti-Rabbit HRP, #111-035-144) 1:1 diluted in glycerol, store at −20° C. The working solution: 1×2000 dilution of stock in blocking buffer. • Chemiluminescent working solution (Pierce, 37030): SuperSignal ELISA (enzyme linked immunosorbant assay) Pico Chemiluminescent substrate. • Crystal Violet solution: Stock: 2.5% Crystal violet in methanol, filtered and kept at ambient temperature. The working solution: dilute the stock 1:20 with PBS immediately before use. • 10% SDS: working solution: 5% SDS (sodium dodecylsulfate), diluted in PBS Methods: Day 1:
A 96 well TC (tissue culture treated) plate was coated with 10 μg/mL poly-L-Lysine at 37° C. for 30 min, washed twice with PBS, and air-dried for 5 minutes before cells were added. Hela cells were seeded at 10,000 cells/well and the cells were starved in 100 μL starvation medium containing Axl/Fc for 24 hrs.
The cells were pre-treated with test compounds by adding 100 μL of 2× test compound to the starvation medium on the cells. The cells were incubated at 37° C. for 1 hr before stimulation.
The resulting mix was warmed to 37° C. 50 μL of 5×Axl 1st/2nd of antibody cluster was added to the cells and the cells were incubated at 37° C. for 5 min.
After 5 minutes stimulation, the plate was flicked to remove medium and the plate was tapped onto paper towels. Formaldehyde (4.0% in PBS, 100 μL) was added to fix the cells and the cells were incubated at ambient temperature for 20 min without shaking.
The cells were washed with a plate washer buffer to remove the formaldehyde solution. The plate was flicked to removed excess wash buffer and tapped onto paper towels. Quenching buffer (100 μL) was added to each well and the cells were incubated at ambient temperature for 20 minutes without shaking.
The cells were washed with a plate washer buffer to remove the quenching buffer. Blocking buffer (100 μL) was added and the cells were incubated at ambient temperature for at least an hour with gentle shaking.
The cells were washed with a plate washer buffer and diluted primary antibody (50 μL) was added to each well (blocking buffer was added to the negative control wells instead). The plates were incubated overnight at 4° C. with gentle shaking.
The wash buffer was removed, diluted secondary antibody (100 μL) was added, and the cells were incubated at ambient temperature for 1 hour with gentle shaking. During the incubation, the chemiluminescent reagent was brought to ambient temperature.
The secondary antibody was removed by washing the cells 1× with wash buffer, 1× with PBS by plate washer.

Where [1] appears, read: Hela cells, phospho-Akt chemiluminescence normalized to relative cell number, compounds of formula (Ia), Table 1, read-out: IC50.
The mark [2] stands for this setting: inhibition of Axl activity, Table 1, compounds of formula (Ia), read-out: IC50.

Data on 15 compounds can be found in patent publication US7709482B2, “Polycyclic heteroaryl substituted triazoles useful as Axl inhibitors” (Rigel Pharmaceuticals, Inc., priority 2006, dated 2010).

Read-outs that look alike come from different tables or passages of the source. Bounds are passed on as bounds.

What is called IC50 is the concentration that inhibits the measured activity by half.

As for `CCN(CC)C1CCN(c2ccc(Nc3nc(N)n(-c4cc5c(nn4)-c4ccccc4CCC5)n3)cc2F)C1` (stereo not drawn) [Compound 32, 1-(6,7-dihydro-5H-benzo[6,7]cyclohepta[1,2-c]pyridazin-3-yl)-N^3-(3-fluoro-4-(3-(diethylamino)pyrrolidin-1-yl)phenyl)-1H-1,2,4-triazole-3,5-diamine], the IC50 under setting [1] was below 1 µM.

Regarding `Nc1nc(Nc2ccc3c(c2)CCC(O)CC3)nn1-c1cc2c(nn1)-c1ccccc1CCC2` (stereo not drawn) [Compound 226, 1-(6,7-dihydro-5H-benzo[6,7]cyclohepta[1,2-c]pyridazin-3-yl)-N^3-(7-hydroxy-6,7,8,9-tetrahydro-5H-benzo[7]annulene-2-yl)-1H-1,2,4-triazole-3,5-diamine], the half-maximal inhibitory concentration (IC50) under setting [2] was below 1 µM.

On to `Nc1nc(Nc2ccc3c(c2)CCC(N2CC[C@@H](F)C2)CC3)nn1-c1cc2c(nn1)-c1ccccc1CCC2` (stereo partly drawn) [Compound 222, 1-(6,7-dihydro-5H-benzo[6,7]cyclohepta[1,2-c]pyridazin-3-yl)-N^3-(7-(3-(R)-fluoropyrrolidin-1-yl)-6,7,8,9-tetrahydro-5H-benzo[7]annulene-2-yl)-1H-1,2,4-triazole-3,5-diamine], for which the half-inhibitory concentration (IC50) under setting [2] is below 1 µM.

As to `CN1CCN(c2ccc(Nc3nc(N)n(-c4cc5c(nn4)-c4ccccc4CCC5)n3)cc2F)CC1` [Compound 209, 1-(6,7-dihydro-5H-benzo[6,7]cyclohepta[1,2-c]pyridazin-3-yl)-N^3-(3-fluoro-4-(4-methylpiperazin-1-yl)phenyl)-1H-1,2,4-triazole-3,5-diamine], the IC50 under setting [2] was below 1 µM.

On to `CCCN(CCC)C1CCN(c2ccc(Nc3nc(N)n(-c4cc5c(nn4)-c4ccccc4CCC5)n3)cc2F)CC1` [Compound 83, 1-(6,7-dihydro-5H-benzo[6,7]cyclohepta[1,2-c]pyridazin-3-yl)-N^3-(3-fluoro-4-(4-(dipropylamino)piperidin-1-yl)phenyl)-1H-1,2,4-triazole-3,5-diamine], for which, under setting [1], the 50% inhibitory concentration (IC50) was in the range of 1 to 10 µM.

For the compound `Nc1nc(Nc2ccc(N3CCN(C4CCCCC4)CC3)c(F)c2)nn1-c1cc(-c2ccccc2)c2c(n1)-c1ccccc1CCC2` [Compound 192, 1-(4-phenyl-6,7-dihydro-5H-benzo[6,7]cyclohepta[1,2-b]pyridin-2-yl)-N^3-(3-fluoro-4-(4-cyclohexylpiperazin-1-yl)phenyl)-1H-1,2,4-triazole-3,5-diamine], the half-inhibitory concentration (IC50) under setting [2] lay in the range of 10 to 20 µM.

Take `Nc1nc(Nc2cnc3c(c2)CC(N2CCCC2)CC3)nn1-c1cc2c(nn1)-c1ccccc1CCC2` (stereo not drawn) [Compound 189, 1-(6,7-dihydro-5H-benzo[6,7]cyclohepta[1,2-c]pyridazin-3-yl)-N^3-(6-(pyrrolidin-1-yl)-5,6,7,8-tetrahydroquinolin-3-yl)-1H-1,2,4-triazole-3,5-diamine]: the IC50 under setting [2] was below 1 µM.

For the compound `Nc1nc(Nc2ccc3c(c2)CCC(N2CCC2)CC3)nn1-c1cc2c(nn1)-c1ccccc1CCC2` (stereo not drawn) [Compound 151, 1-(6,7-dihydro-5H-benzo[6,7]cyclohepta[1,2-c]pyridazin-3-yl)-N^3-((7-azetidin-1-yl)-6,7,8,9-tetrahydro-5H-benzo[7]annulene-2-yl)-1H-1,2,4-triazole-3,5-diamine], the IC50 under setting [2] is below 1 µM.

Turning to `Nc1nc(Nc2ccc(N3CCN(C4CCCCC4)CC3)c(F)c2)nn1-c1cc2c(nn1)-c1cc(F)ccc1CCC2` [Compound 55, 1-(6,7-dihydro-5H-10-fluorobenzo[6,7]cyclo-hepta[1,2-c]pyridazin-3-yl)-N^3-(3-fluoro-4-(4-(cyclohexyl)piperazin-1-yl)phenyl)-1H-1,2,4-triazole-3,5-diamine], the half-maximal inhibitory concentration (IC50) under setting [1] was in the range of 10 to 20 µM.

As for `Nc1nc(Nc2ccc(N3CCC(N4CCCC4)C3)c(F)c2)nn1-c1cc2c(nn1)-c1ccccc1CCC2` (stereo not drawn) [Compound 132, 1-(6,7-dihydro-5H-benzo[6,7]cyclohepta[1,2-c]pyridazin-3-yl)-N^3-(3-fluoro-(4-(3-pyrrolidin-1-yl)pyrrolidin-1-yl)phenyl)-1H-1,2,4-triazole-3,5-diamine], the IC50 under setting [2] is below 1 µM.

As to `Nc1nc(Nc2ccc3oc(CN4CCCC4)nc3c2)nn1-c1cc2c(nn1)-c1ccccc1OCC2` [Compound 118, 1-(6,7-dihydro-5H-benzo[2,3]oxepino[4,5-c]pyridazin-3-yl)-N^3-(2-(pyrrolidin-1-ylmethyl)benzo[d]oxazol-5-yl)-1H-1,2,4-triazole-3,5-diamine], the half-maximal inhibitory concentration (IC50) under setting [1] was in the range of 1 to 10 µM.

On to `CC(C)(C)OC(=O)NC1CCN(c2ccc(Nc3nc(N)n(-c4cc5c(nn4)-c4ccccc4CCC5)n3)cc2F)CC1` [Compound 86, 1-(6,7-dihydro-5H-benzo[6,7]cyclohepta[1,2-c]pyridazin-3-yl)-N^3-(3-fluoro-4-(4-(tert-butyloxycarbonylamino)-piperidin-1-yl)phenyl)-1H-1,2,4-triazole-3,5-diamine], for which the IC50 under setting [1] lay in the range of 1 to 10 µM.

As to `CCN(CC)C1CCN(c2ccc(Nc3nc(N)n(-c4cc5c(nn4)-c4ccccc4CCC5)n3)cn2)C1` (stereo not drawn) [Compound 133, 1-(6,7-dihydro-5H-benzo[6,7]cyclohepta[1,2-c]pyridazin-3-yl)-N^3-(6-(3-diethylaminopyrrolidin-1-yl)pyridin-3-yl)-1H-1,2,4-triazole-3,5-diamine], the half-inhibitory concentration (IC50) under setting [2] was below 1 µM.

`Nc1nc(Nc2ccc(N3CCC(N4C(=O)Cc5ccccc54)CC3)c(F)c2)nn1-c1cc2c(nn1)-c1ccccc1CCC2` [Compound 7, 1-(6,7-dihydro-5H-benzo[6,7]cyclohepta[1,2-c]pyridazin-3-yl)-N^3-(3-fluoro-4-(4-(indolin-2-on-1-yl)piperidin-1-yl)phenyl)-1H-1,2,4-triazole-3,5-diamine] gave an IC50 above 20 µM.

In the case of `Nc1nc(Nc2ccc(N3CCC(N4CCCC4)CC3)c(F)c2)nn1-c1cc2c(nn1)-c1ccc(Cl)cc1CCC2` [Compound 143, 1-(6,7-dihydro-9-chloro-5H-benzo[6,7]cyclohepta[1,2-c]pyridazin-3-yl)-N^3-(3-fluoro-4-(4-pyrrolidin-1-ylpiperidin-1-yl)phenyl)-1H-1,2,4-triazole-3,5-diamine], the IC50 under setting [2] was below 1 µM.
